Test results published in patent publication US20230301300A1, “HERBICIDAL COMPOSITIONS” (SYNGENTA CROP PROTECTION AG, priority 2020, published 2023).

How the values were obtained:
Assay in all cases: B2 Post-Emergence Efficacy - Test 2
Assay type in all cases: in vivo
[1] = tested on: Alopecurus myosuroides (ALOMY); conditions: 15 days after application, 0-100 scale
Procedure, shortened: (§1)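 Visual phytotoxicity on a 0–100 scale, where 100 means total kill, was recorded 15 days following a single post-emergence spray. The spray was an aqueous dilution of active ingredient in IF50 with 0.2% v/v Genapol X080, applied to 12-day-old plants.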

[2] = tested on: Amaranthus retroflexus (AMARE); conditions: 15 days after application, 0-100 scale
Procedure, shortened: as §1

Avena fatua (AVEFA) = conditions: 15 days after application, 0-100 scale
Procedure, shortened: as §1

Beta vulgaris (BEAVA) = conditions: 15 days after application, 0-100 scale
Procedure, shortened: as §1

Brassica napus (BRSNN) = conditions: 15 days after application, 0-100 scale
Procedure, shortened: as §1

Bromus tectorum (BROTE) = conditions: 15 days after application, 0-100 scale
Procedure, shortened: as §1

[3] = tested on: Chenopodium album (CHEAL); conditions: 15 days after application, 0-100 scale
Procedure, shortened: as §1

[4] = tested on: Echinochloa crus galli (ECHCG); conditions: 15 days after application, 0=no damage, 100=total kill
Procedure, shortened: as §1

Eleisine indica (ELEIN) = conditions: 15 days after application, 0=no damage, 100=total kill
Procedure, shortened: as §1

[5] = tested on: Euphorbia hetrophylla (EPHHL); conditions: 15 days after application, 0-100 scale
Procedure, shortened: as §1

Glycine max (GLXMA) = conditions: 15 days after application; for Herbicidal activity GLXMA: 0-100 scale; for Herbicidal activity on a 0-100 scale, GLXMA: 0=no damage, 100=total kill
Procedure, shortened: as §1

[6] = tested on: Ipomoea hederacea (IPOHE); conditions: 15 days after application, 0-100 scale
Procedure, shortened: as §1

[7] = tested on: Panicum miliaceum (PANMI); conditions: 15 days after application, 0=no damage, 100=total kill
Procedure, shortened: as §1

Sida spinosa (SIDSP) = conditions: 15 days after application, 0-100 scale
Procedure, shortened: as §1

Sorghum bicolour (SORVU) = conditions: 15 days after application, 0=no damage, 100=total kill
Procedure, shortened: as §1

Stellaria media (STEME) = conditions: 15 days after application, 0-100 scale
Procedure, shortened: as §1

Veronica persica (VERPE) = conditions: 15 days after application, 0-100 scale
Procedure, shortened: as §1

[8] = tested on: Xanthium strumarium (XANST); conditions: 15 days after application, 0-100 scale
Procedure, shortened: as §1

## Cc1nn(C)c(=O)c(-c2c(F)ccc(Cl)c2CCc2ccccc2C(F)(F)F)c1O [Compound 1.066, 4-[3-chloro-6-fluoro-2-[2-[2-(trifluoromethyl)phenyl]ethyl]phenyl]-5-hydroxy-2,6-dimethyl-pyridazin-3-one]
[1]; 15 g/Ha
  Herbicidal activity ALOMY: 20
[1]; 30 g/Ha
  Herbicidal activity ALOMY: 50
[1]; 60 g/Ha
  Herbicidal activity ALOMY: 70
[1]; 125 g/Ha
  Herbicidal activity ALOMY: 80
[1]; 250 g/Ha
  Herbicidal activity ALOMY: 90
[1]; 500 g/Ha
  Herbicidal activity ALOMY: 90
[2]; 15 g/Ha
  Herbicidal activity AMARE: 90
[2]; 30 g/Ha
  Herbicidal activity AMARE: 90
[2]; 60 g/Ha
  Herbicidal activity AMARE: 90
[2]; 125 g/Ha
  Herbicidal activity AMARE: 100
[2]; 250 g/Ha
  Herbicidal activity AMARE: 100
[2]; 500 g/Ha
  Herbicidal activity AMARE: 100
Avena fatua (AVEFA); 15 g/Ha
  Herbicidal activity AVEFA: 0
Avena fatua (AVEFA); 30 g/Ha
  Herbicidal activity AVEFA: 20
Avena fatua (AVEFA); 60 g/Ha
  Herbicidal activity AVEFA: 40
Avena fatua (AVEFA); 125 g/Ha
  Herbicidal activity AVEFA: 90
Avena fatua (AVEFA); 250 g/Ha
  Herbicidal activity AVEFA: 90
Avena fatua (AVEFA); 500 g/Ha
  Herbicidal activity AVEFA: 90
Beta vulgaris (BEAVA); 15 g/Ha
  Herbicidal activity BEAVA: 80
Beta vulgaris (BEAVA); 30 g/Ha
  Herbicidal activity BEAVA: 80
Beta vulgaris (BEAVA); 60 g/Ha
  Herbicidal activity BEAVA: 80
Beta vulgaris (BEAVA); 125 g/Ha
  Herbicidal activity BEAVA: 80
Beta vulgaris (BEAVA); 250 g/Ha
  Herbicidal activity BEAVA: 80
Beta vulgaris (BEAVA); 500 g/Ha
  Herbicidal activity BEAVA: 90
Brassica napus (BRSNN); 15 g/Ha
  Herbicidal activity BRSNN: 90
Brassica napus (BRSNN); 30 g/Ha
  Herbicidal activity BRSNN: 90
Brassica napus (BRSNN); 60 g/Ha
  Herbicidal activity BRSNN: 90
Brassica napus (BRSNN); 125 g/Ha
  Herbicidal activity BRSNN: 90
Brassica napus (BRSNN); 250 g/Ha
  Herbicidal activity BRSNN: 90
Brassica napus (BRSNN); 500 g/Ha
  Herbicidal activity BRSNN: 90
Bromus tectorum (BROTE); 15 g/Ha
  Herbicidal activity BROTE: 0
Bromus tectorum (BROTE); 30 g/Ha
  Herbicidal activity BROTE: 20
Bromus tectorum (BROTE); 60 g/Ha
  Herbicidal activity BROTE: 60
Bromus tectorum (BROTE); 125 g/Ha
  Herbicidal activity BROTE: 70
Bromus tectorum (BROTE); 250 g/Ha
  Herbicidal activity BROTE: 80
Bromus tectorum (BROTE); 500 g/Ha
  Herbicidal activity BROTE: 90
[3]; 30 g/Ha
  Herbicidal activity CHEAL: 90
[3]; 60 g/Ha
  Herbicidal activity CHEAL: 90
[3]; 125 g/Ha
  Herbicidal activity CHEAL: 90
[3]; 250 g/Ha
  Herbicidal activity CHEAL: 100
[3]; 500 g/Ha
  Herbicidal activity CHEAL: 100
[4]; 15 g/Ha
  Herbicidal activity on a 0-100 scale, ECHCG: 20
[4]; 30 g/Ha
  Herbicidal activity on a 0-100 scale, ECHCG: 80
[4]; 60 g/Ha
  Herbicidal activity on a 0-100 scale, ECHCG: 90
[4]; 125 g/Ha
  Herbicidal activity on a 0-100 scale, ECHCG: 90
[4]; 250 g/Ha
  Herbicidal activity on a 0-100 scale, ECHCG: 90
[4]; 500 g/Ha
  Herbicidal activity on a 0-100 scale, ECHCG: 90
Eleisine indica (ELEIN); 15 g/Ha
  Herbicidal activity on a 0-100 scale, ELEIN: 0
Eleisine indica (ELEIN); 30 g/Ha
  Herbicidal activity on a 0-100 scale, ELEIN: 20
Eleisine indica (ELEIN); 60 g/Ha
  Herbicidal activity on a 0-100 scale, ELEIN: 70
Eleisine indica (ELEIN); 125 g/Ha
  Herbicidal activity on a 0-100 scale, ELEIN: 70
Eleisine indica (ELEIN); 250 g/Ha
  Herbicidal activity on a 0-100 scale, ELEIN: 70
Eleisine indica (ELEIN); 500 g/Ha
  Herbicidal activity on a 0-100 scale, ELEIN: 80
[5]; 15 g/Ha
  Herbicidal activity EPHHL: 60
[5]; 30 g/Ha
  Herbicidal activity EPHHL: 70
[5]; 60 g/Ha
  Herbicidal activity EPHHL: 80
[5]; 125 g/Ha
  Herbicidal activity EPHHL: 90
[5]; 250 g/Ha
  Herbicidal activity EPHHL: 100
[5]; 500 g/Ha
  Herbicidal activity EPHHL: 100
Glycine max (GLXMA); 15 g/Ha
  Herbicidal activity GLXMA: 20
  Herbicidal activity on a 0-100 scale, GLXMA: 20
Glycine max (GLXMA); 30 g/Ha
  Herbicidal activity GLXMA: 40
  Herbicidal activity on a 0-100 scale, GLXMA: 40
Glycine max (GLXMA); 60 g/Ha
  Herbicidal activity GLXMA: 70
  Herbicidal activity on a 0-100 scale, GLXMA: 70
Glycine max (GLXMA); 125 g/Ha
  Herbicidal activity GLXMA: 70
  Herbicidal activity on a 0-100 scale, GLXMA: 70
Glycine max (GLXMA); 250 g/Ha
  Herbicidal activity GLXMA: 90
  Herbicidal activity on a 0-100 scale, GLXMA: 90
Glycine max (GLXMA); 500 g/Ha
  Herbicidal activity GLXMA: 90
  Herbicidal activity on a 0-100 scale, GLXMA: 90
[6]; 15 g/Ha
  Herbicidal activity IPOHE: 70
[6]; 30 g/Ha
  Herbicidal activity IPOHE: 90
[6]; 60 g/Ha
  Herbicidal activity IPOHE: 90
[6]; 125 g/Ha
  Herbicidal activity IPOHE: 100
[6]; 250 g/Ha
  Herbicidal activity IPOHE: 100
[6]; 500 g/Ha
  Herbicidal activity IPOHE: 100
[7]; 15 g/Ha
  Herbicidal activity on a 0-100 scale, PANMI: 0
[7]; 30 g/Ha
  Herbicidal activity on a 0-100 scale, PANMI: 50
[7]; 60 g/Ha
  Herbicidal activity on a 0-100 scale, PANMI: 60
[7]; 125 g/Ha
  Herbicidal activity on a 0-100 scale, PANMI: 80
[7]; 250 g/Ha
  Herbicidal activity on a 0-100 scale, PANMI: 100
[7]; 500 g/Ha
  Herbicidal activity on a 0-100 scale, PANMI: 100
Sida spinosa (SIDSP); 15 g/Ha
  Herbicidal activity SIDSP: 40
Sida spinosa (SIDSP); 30 g/Ha
  Herbicidal activity SIDSP: 80
Sida spinosa (SIDSP); 60 g/Ha
  Herbicidal activity SIDSP: 80
Sida spinosa (SIDSP); 125 g/Ha
  Herbicidal activity SIDSP: 90
Sida spinosa (SIDSP); 250 g/Ha
  Herbicidal activity SIDSP: 90
Sida spinosa (SIDSP); 500 g/Ha
  Herbicidal activity SIDSP: 100
Sorghum bicolour (SORVU); 15 g/Ha
  Herbicidal activity on a 0-100 scale, SORVU: 0
Sorghum bicolour (SORVU); 30 g/Ha
  Herbicidal activity on a 0-100 scale, SORVU: 20
Sorghum bicolour (SORVU); 60 g/Ha
  Herbicidal activity on a 0-100 scale, SORVU: 60
Sorghum bicolour (SORVU); 125 g/Ha
  Herbicidal activity on a 0-100 scale, SORVU: 80
Sorghum bicolour (SORVU); 250 g/Ha
  Herbicidal activity on a 0-100 scale, SORVU: 90
Sorghum bicolour (SORVU); 500 g/Ha
  Herbicidal activity on a 0-100 scale, SORVU: 100
Stellaria media (STEME); 15 g/Ha
  Herbicidal activity STEME: 80
Stellaria media (STEME); 30 g/Ha
  Herbicidal activity STEME: 60
Stellaria media (STEME); 60 g/Ha
  Herbicidal activity STEME: 90
Stellaria media (STEME); 125 g/Ha
  Herbicidal activity STEME: 90
Stellaria media (STEME); 250 g/Ha
  Herbicidal activity STEME: 90
Stellaria media (STEME); 500 g/Ha
  Herbicidal activity STEME: 100
Veronica persica (VERPE); 15 g/Ha
  Herbicidal activity VERPE: 80
Veronica persica (VERPE); 30 g/Ha
  Herbicidal activity VERPE: 90
Veronica persica (VERPE); 60 g/Ha
  Herbicidal activity VERPE: 100
Veronica persica (VERPE); 125 g/Ha
  Herbicidal activity VERPE: 100
Veronica persica (VERPE); 250 g/Ha
  Herbicidal activity VERPE: 100
Veronica persica (VERPE); 500 g/Ha
  Herbicidal activity VERPE: 100
[8]; 60 g/Ha
  Herbicidal activity XANST: 90
[8]; 250 g/Ha
  Herbicidal activity XANST: 100
[8]; 500 g/Ha
  Herbicidal activity XANST: 100
